The target in test [1] is T1, Histone-lysine N-methyltransferase SUV39H1 (Homo sapiens) (UniProt O43463).
T1 sequence (whole entry): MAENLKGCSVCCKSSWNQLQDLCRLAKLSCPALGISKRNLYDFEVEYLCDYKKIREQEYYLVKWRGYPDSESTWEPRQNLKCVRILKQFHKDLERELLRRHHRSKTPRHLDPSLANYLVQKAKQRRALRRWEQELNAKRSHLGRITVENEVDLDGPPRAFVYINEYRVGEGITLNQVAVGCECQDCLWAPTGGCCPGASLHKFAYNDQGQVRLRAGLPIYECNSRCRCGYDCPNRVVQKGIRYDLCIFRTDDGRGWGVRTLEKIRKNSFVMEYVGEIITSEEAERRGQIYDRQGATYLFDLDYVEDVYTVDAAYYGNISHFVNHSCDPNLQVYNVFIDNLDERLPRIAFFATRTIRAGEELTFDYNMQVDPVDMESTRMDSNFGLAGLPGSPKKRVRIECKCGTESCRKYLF
Nature of the test: Selectivity interaction (Methyltransferase screen (radiometric assays, panel of 8 PRMTs, 21 protein lysine methyltransferases, 3 DNA methyltransferases, and one RNA methyltransferase)) EUB0000271b SUV39H1.

The target in test [2] is Mitogen-activated protein kinase 14 (Homo sapiens, UniProt Q16539). Nature of the test: Selectivity interaction (SelectScreen profiling (Invitrogen)) EUB0000607a MAPK14. The settings on record: at 2 µM.
Chain of Mitogen-activated protein kinase 14 (Q16539 whole entry): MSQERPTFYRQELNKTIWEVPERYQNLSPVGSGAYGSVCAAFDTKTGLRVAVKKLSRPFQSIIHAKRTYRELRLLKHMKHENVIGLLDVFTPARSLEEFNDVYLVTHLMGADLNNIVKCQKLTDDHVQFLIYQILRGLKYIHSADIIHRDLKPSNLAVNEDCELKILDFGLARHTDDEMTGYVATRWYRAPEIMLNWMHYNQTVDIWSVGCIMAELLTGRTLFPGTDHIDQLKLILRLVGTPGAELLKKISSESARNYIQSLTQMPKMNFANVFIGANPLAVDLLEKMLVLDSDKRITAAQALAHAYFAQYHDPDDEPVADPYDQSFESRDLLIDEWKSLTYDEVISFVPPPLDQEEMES
Test [3] has as its target T2, Histone-arginine methyltransferase CARM1 (Homo sapiens) (UniProt Q86X55).
T2 sequence (whole entry): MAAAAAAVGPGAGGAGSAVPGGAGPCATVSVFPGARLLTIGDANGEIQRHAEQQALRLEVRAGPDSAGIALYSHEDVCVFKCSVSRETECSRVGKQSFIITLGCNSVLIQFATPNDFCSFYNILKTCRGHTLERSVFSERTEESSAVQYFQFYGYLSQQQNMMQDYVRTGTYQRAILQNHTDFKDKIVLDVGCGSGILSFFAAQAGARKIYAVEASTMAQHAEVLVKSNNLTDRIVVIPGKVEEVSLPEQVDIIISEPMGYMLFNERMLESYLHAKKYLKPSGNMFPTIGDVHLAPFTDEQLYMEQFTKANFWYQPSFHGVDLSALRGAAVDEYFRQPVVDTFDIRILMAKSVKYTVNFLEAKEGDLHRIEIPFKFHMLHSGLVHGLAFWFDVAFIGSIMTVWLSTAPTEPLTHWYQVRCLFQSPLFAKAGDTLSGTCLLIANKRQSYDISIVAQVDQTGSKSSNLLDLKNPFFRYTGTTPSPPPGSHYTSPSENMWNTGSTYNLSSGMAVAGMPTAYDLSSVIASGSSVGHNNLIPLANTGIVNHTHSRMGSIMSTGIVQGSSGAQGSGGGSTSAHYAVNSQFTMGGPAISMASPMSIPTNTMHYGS
The settings on record: at 10 µM.

Test [4] addresses T3, Histone-lysine N-methyltransferase NSD3 (Homo sapiens) (UniProt Q9BZ95).
T3 sequence (whole entry): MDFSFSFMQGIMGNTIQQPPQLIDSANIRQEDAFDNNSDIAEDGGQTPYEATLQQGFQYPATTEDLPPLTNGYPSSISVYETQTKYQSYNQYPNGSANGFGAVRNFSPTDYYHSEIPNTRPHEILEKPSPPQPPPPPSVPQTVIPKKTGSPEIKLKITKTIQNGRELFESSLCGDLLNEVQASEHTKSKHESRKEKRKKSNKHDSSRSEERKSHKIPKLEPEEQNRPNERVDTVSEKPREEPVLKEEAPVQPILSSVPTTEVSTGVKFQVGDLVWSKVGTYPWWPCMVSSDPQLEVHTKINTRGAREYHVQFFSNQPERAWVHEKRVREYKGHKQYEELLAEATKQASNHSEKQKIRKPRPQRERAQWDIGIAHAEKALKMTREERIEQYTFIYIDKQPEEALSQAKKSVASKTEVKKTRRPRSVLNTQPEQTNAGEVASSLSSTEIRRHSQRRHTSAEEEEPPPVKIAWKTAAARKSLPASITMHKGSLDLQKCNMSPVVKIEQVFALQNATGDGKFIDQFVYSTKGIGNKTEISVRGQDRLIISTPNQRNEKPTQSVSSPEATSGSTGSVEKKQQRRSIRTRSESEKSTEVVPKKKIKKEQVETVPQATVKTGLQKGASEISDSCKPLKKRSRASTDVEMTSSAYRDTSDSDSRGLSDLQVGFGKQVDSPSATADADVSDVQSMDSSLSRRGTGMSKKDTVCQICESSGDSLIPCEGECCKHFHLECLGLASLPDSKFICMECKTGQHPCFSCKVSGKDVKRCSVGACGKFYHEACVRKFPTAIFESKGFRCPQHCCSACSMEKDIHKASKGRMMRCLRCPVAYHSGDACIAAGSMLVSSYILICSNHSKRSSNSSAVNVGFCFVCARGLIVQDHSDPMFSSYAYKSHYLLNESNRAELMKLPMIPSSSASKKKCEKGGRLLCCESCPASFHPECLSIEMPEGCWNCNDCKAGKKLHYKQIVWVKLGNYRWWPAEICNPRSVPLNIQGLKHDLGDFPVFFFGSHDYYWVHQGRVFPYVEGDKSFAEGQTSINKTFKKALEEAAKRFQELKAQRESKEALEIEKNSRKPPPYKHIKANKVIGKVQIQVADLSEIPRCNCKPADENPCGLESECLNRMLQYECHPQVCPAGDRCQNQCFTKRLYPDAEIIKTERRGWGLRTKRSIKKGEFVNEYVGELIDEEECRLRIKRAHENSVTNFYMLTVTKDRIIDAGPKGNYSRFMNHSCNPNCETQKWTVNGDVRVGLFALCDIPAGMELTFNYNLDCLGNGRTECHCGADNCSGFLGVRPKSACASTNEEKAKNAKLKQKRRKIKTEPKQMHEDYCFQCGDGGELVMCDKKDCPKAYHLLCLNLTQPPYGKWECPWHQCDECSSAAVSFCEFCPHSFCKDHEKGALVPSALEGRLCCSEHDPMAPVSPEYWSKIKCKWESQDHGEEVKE
Nature of the test: Selectivity interaction (Methyltransferase screen (Scintillation proximity assays)) EUB0000255b NSD3.

For test [5], the target named is Muscarinic acetylcholine receptor M3 (Homo sapiens, UniProt P20309). Nature of the test: Selectivity interaction (GPCR panel (PDSP screen)) EUB0001079a CHRM3. Conditions: at 10 µM.
Chain of Muscarinic acetylcholine receptor M3 (P20309 whole entry, looked up): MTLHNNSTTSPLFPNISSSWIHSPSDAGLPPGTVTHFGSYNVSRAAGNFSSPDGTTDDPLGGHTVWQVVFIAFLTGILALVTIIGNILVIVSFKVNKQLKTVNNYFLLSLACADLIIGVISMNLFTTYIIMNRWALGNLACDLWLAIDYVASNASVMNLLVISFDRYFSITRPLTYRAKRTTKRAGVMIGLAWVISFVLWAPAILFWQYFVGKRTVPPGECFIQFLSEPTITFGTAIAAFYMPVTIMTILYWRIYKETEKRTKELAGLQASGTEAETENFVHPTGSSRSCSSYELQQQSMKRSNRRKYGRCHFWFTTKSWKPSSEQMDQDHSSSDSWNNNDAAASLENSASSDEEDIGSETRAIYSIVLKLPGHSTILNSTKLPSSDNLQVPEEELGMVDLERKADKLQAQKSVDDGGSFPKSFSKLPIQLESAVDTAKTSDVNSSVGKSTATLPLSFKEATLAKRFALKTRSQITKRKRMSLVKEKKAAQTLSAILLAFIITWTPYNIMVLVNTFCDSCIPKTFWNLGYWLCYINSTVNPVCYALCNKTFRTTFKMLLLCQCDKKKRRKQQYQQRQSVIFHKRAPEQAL
Test [6] has as its target Calcium/calmodulin-dependent protein kinase kinase 2 (Homo sapiens) (UniProt Q96RR4). As to the kind of experiment: Selectivity interaction (ActivX KiNativ screen (kinase selectivity in THP-1 cell lysates)) EUB0000639a CAMKK2. Format: subcellular. The settings on record: lysate, at 0.04 µM.
Test [7] has as its target Vasopressin V2 receptor (Homo sapiens, UniProt P30518). Nature of the test: Selectivity interaction (Eurofins CEREP Diversity Profile (receptors and ion channels)) EUB0000279b AVPR2. Conditions: at 10 µM.
Test [8] has as its target Dual specificity protein kinase CLK3 (Homo sapiens, UniProt P49761). As to the kind of experiment: Selectivity interaction (Kinase panel (DSF assay)) EUB0001559a CLK3. Background: DSF heats the sample and reads unfolding from a dye or from intrinsic fluorescence.
The test system of test [9] is Epidermal growth factor receptor (Homo sapiens), P00533 [G719C]. The settings on record: at 10 µM.
Chain of Epidermal growth factor receptor (Homo sapiens), P00533 [G719C] (P00533 whole entry G719C): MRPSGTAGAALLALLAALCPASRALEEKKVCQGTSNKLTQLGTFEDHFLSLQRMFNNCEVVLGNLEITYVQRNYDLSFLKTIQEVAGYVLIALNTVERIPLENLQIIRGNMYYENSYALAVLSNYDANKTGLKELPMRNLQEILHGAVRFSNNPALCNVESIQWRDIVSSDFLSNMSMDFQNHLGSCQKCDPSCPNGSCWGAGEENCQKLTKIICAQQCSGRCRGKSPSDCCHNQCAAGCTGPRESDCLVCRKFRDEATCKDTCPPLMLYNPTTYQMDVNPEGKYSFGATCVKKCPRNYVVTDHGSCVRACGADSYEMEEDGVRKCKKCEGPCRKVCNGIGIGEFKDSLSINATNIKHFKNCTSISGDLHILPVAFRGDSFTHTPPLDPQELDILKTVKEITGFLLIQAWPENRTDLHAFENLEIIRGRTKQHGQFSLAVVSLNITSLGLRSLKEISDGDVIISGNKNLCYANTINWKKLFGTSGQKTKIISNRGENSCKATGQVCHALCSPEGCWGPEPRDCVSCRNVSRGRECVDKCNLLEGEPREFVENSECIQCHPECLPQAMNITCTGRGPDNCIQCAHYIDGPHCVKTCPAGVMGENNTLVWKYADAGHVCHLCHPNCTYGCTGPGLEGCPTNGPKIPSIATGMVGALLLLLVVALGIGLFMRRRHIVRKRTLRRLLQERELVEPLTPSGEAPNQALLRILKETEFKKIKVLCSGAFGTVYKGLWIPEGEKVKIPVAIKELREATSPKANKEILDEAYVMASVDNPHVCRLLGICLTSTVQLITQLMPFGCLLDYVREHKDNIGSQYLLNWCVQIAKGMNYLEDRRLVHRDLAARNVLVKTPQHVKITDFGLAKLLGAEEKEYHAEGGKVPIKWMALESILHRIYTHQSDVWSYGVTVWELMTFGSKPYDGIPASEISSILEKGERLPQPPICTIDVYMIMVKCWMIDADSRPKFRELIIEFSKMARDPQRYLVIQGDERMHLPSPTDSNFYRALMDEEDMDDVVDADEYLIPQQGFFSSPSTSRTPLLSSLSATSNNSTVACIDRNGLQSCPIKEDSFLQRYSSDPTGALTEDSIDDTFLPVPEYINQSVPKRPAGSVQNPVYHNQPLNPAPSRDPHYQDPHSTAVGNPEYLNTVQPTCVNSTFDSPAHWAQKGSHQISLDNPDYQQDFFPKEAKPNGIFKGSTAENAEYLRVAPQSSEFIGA

The structures appear in SMILES notation.

Chain of Dual specificity protein kinase CLK3 (P49761 whole entry, looked up): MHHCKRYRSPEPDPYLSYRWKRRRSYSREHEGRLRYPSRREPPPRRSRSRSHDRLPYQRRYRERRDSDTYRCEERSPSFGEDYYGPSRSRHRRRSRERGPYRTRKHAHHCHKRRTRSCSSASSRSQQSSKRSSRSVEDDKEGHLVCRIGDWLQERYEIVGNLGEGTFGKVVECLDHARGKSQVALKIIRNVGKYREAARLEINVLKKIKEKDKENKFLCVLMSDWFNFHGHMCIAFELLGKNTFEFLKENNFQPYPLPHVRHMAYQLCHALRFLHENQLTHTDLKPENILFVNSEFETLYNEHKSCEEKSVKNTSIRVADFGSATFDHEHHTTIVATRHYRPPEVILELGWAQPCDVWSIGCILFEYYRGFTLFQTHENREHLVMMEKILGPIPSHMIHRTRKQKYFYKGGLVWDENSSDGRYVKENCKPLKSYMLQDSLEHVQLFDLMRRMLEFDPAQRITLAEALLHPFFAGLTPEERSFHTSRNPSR
Chain of Vasopressin V2 receptor (P30518 whole entry): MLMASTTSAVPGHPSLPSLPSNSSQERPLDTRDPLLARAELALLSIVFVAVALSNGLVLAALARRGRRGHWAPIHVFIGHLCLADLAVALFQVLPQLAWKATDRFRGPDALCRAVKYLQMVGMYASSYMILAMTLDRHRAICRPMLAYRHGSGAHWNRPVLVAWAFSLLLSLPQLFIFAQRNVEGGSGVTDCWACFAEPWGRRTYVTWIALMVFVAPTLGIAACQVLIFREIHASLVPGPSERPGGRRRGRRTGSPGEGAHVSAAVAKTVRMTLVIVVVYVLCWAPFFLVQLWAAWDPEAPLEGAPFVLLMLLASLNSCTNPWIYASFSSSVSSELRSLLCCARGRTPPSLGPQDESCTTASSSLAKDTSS
Chain of Calcium/calmodulin-dependent protein kinase kinase 2 (Homo sapiens) (Q96RR4 2-588 limits assumed): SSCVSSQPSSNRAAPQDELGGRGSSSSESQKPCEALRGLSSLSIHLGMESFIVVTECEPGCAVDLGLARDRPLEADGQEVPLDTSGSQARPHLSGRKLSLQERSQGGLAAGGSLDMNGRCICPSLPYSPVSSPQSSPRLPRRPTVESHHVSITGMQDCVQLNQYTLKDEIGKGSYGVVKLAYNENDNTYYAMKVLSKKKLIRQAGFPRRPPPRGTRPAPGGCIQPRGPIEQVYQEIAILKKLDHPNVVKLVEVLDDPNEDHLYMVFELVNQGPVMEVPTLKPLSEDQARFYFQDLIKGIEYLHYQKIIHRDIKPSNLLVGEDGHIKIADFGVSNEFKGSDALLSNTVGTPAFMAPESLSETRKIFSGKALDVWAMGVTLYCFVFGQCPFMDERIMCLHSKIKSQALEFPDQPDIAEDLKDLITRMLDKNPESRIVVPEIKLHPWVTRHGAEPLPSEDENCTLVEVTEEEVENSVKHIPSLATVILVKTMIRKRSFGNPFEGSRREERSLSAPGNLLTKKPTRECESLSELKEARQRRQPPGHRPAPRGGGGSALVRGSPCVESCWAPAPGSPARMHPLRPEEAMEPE

In the case of `Cc1cc(C)cc([C@@H]2c3cc(C)ccc3NC(=O)CN2C(=O)c2ccc(Br)s2)c1`, the % of activity in test [1] (at 1 µM) amounted to 96.7%; in test [1] (at 10 µM) it was 91.3%.

With `CNC(=O)Nc1ccc(-c2nc(N3CC4CCC(C3)O4)c3cnn(C4CCC5(CC4)OCCO5)c3n2)cc1`, in test [2], the % of inhibition was determined as 11%.

In test [3], `CNCCN1CCC(c2cc(CN(C)C(=O)c3cccc(Oc4ccccc4)c3)ccn2)CC1` yielded a % activity of 1%.

Turning to `COCCN1CCC(c2cc(CN(C)C(=O)c3cccc(Oc4ccccc4)c3)ccn2)CC1`, the % activity in [4] (at 1 µM) is over 95%; in [4] (at 10 µM), over 90%.

On to `Nc1cnc(N2CCc3cc(S(=O)(=O)Nc4c(F)cc(Cl)cc4F)cc(N4CCCC4=O)c32)nc1` [TP-020n], for which the % of inhibition in test [5] was -18%.

As to `CC[C@@H]1[C@H](F)C(=O)N[C@@H]1COc1nccc2cc(C(N)=O)c(OC)cc12` [ZIMLOVISERTIB], in [6], the % of inhibition was -13%.

On to `CC(=O)c1cc(-c2ccccc2OCC2CC2)c2ncccn12`, for which, in test [7], the % of control was 109%.

In turn, `CN(C(=O)c1cnn2cccnc12)c1cc2c(cc1N1CCOCC1)C(=O)N(C[C@@H](F)C(C)(C)O)C2` had a dTM in test [8] of 0 K.

On to `COCC(=O)NC/C=C/c1ccc2ncnc(Nc3ccc(Oc4ccc(C)nc4)c(C)c3)c2c1` [CP-724714], for which, in [9], the % of control worked out at 0%.

The record behind these values is ChEMBL document CHEMBL5465560, “Selectivity Literature for EUbOPEN Chemogenomic Library” (2024).
